# Test system: human cutaneous fibroblasts
# Assay: Intracellular glutathione (GSH) in dermal fibroblasts irradiated with UVA
# Format: cell-based
# Conditions: 5 mM, 15 J/cm^2 UVA
# Experimental: Dermal fibroblasts were inoculated in 60 mm petri dishes. The cells were pre-treated for 18 hours with 5 mM rice peptides or N-acetyl-cysteine (NAC=reference antioxidant molecule) and then irradiated at a dose of 15 J/cm^2 UVA. After irradiation, the fibroblasts were incubated for an additional 3 h at 37° C.
# At the end of the treatment, two series of samples were collected in order to evaluate: • a. Total quantity of proteins according to the Lowry method. • b. The ratio of intracellular glutathione by assay (commercial kit).
smiles,measurement,setting,value
"CC(=O)N[C@@H](CS)C(=O)O [NAC, N-acetyl-cysteine]",GSH (μmol/g proteins),,28.209 μmol/g proteins
same,"GSH, % increase compared to irradiated control cells",,29%
same,GSH,18 hours pre-treatment,21.10 µM

# Reference: patent publication US8231916B2, “Use of a rice protein hydrolysate as pigmenting active principle” (Laboratoires Expanscience, priority 2006, dated 2012)
